Results reported in patent publication US5614192A, “T cell receptor peptides as therapeutics for immune-related disease” (Connective Therapeutics, Inc., priority 1993, dated 1997).
“And” between values parts separate entries of the source, which are not always exact repeats. Equal values may be shown once. Ends that are not written are not given here.

Assays:
[1] = system: Vβ8-44-54 reactive T cell clones; test: Specificity of Vβ8-44-54 reactive T cell clones, proliferation (Table 37); assay type: cell-based, rat
Procedure: Proliferation assays: Proliferation assays were performed in 96-well microtiter plates. 2×10^4 T cells and 10^6 irradiated thymocytes/well were incubated with stimulation medium only, ConA, or antigen at 37C in 7% CO2. The cultures were incubated for 72 h, the last 18 h in the presence of 0.5 Bq ^3 H-Tdr. The cells were harvested onto glass fiber filters and TCR uptake was assessed by liquid scintillation. Mean CPM wre calculated from triplicate wells. The standard deviation from replicate wells varied <10% from the mean values. In some experiments, azide free antibodies to MHC I (OX-18) or MHC II (OX-6, anti-I-A and OX-17, anti-I-E) were added to the cultures to evaluate which MHC molecules were used to restrict the T cell response to TCR Vβ8-44-54 peptide.
Isolation of Vβ8-44-54 reactive T cell clones. To characterize the anti-TCR peptide response on the clonal level, ten clones were isolated and characterized from the initial T cell line. As is shown in Table 37, each of the clones responded strongly to the Vβ8-44-54 peptide with stimulation indices ranging from 10× to 1300×, and weakly or not at all to the Vβ8.2-39-59 or Vβ8.6-39-59 peptides. Three of the four clones challenged with all three of the peptides responded selectively to the consensus Vβ8-44-54 peptide, whereas only one clone (B7) reflected the T cell line pattern of response characterized by response to Vβ8-44-54 >Vβ8.6-39-59 >Vβ8.2-39-59 (Table 37). Loss of viability of the clones precluded individual testing of EAE-protective activity.

TCR Vβ 8(39-59) = assay type: binding, rat

DMGHGLRLIHYSYDVNSTEKG [TCR Vβ8(39-59), 21-amino acid CDR2 peptide of rat TCR Vβ8]
Proliferation Response ([1]; Clone B3): 1.1 CPM/1000 | Proliferation Response ([1]; Clone B7): 3 CPM/1000 | Proliferation Response ([1]; Clone B11): 0.7 CPM/1000 | Proliferation Response ([1]; Clone D1): 0.8 CPM/1000 | Proliferation Response ([1]; Line): 102 CPM/1000 | Antisera Reactivity Against TCR Vβ 8 (39-59) (TCR Vβ 8(39-59)): 629 and 621
